Columns and labels:
HIV-1 strain 92HT599 = experiment: Antiviral activity against HIV-1 strain 92HT599 in MT2 cells (p24 estimation); format: cell-based; conditions: Human immunodeficiency virus 1; HIV-1 strain 92HT599, MT2 cells, ~96 hours, p24; read-out: IC50
Experimental: MT2 cells were infected with HIV-1 strain 92HT599 (10 TCID 50/30000 cells). The infected cells were plated at the concentration of ˜30,000 cells per well in 96 well plate. Test compound was added to the micro plate in defined format with the final concentration of DMSO (vehicle) is not more than 1%. Incubation was carried out in CO2 incubator for ˜96 hours for viral infection. At the end of incubation period an aliquot from each well was taken for p24 estimation. The quantitation of p24 is an index for antiviral activity of the compound. Percent inhibition was calculated with reference to control values (vehicle controls). p24 estimation was carried out using Advance biosciences kit as per the procedure detailed by supplier.
The IC50 (nM) values are set forth in below Table-1.

pNL4-3 V7A = experiment: Antiviral activity against pNL4-3 V7A strain in MT4 cells (p24 estimation); format: cell-based, HIV-1; conditions: Human immunodeficiency virus 1, MT4, 96 h, read-out: pNL4-3 V7A IC50
Experimental: (§1) MT4 cells were Transfected with HIV-1 Plasmid (pNL4-3-WT & V7A) (Cells were incubating with required number of TCID50 of HIV-1 for 1.5 h at 37° C.). After infection, the infected cells were plated at the concentration of 3×10^4 cells per well in 96 well plate. Test compound was added to the test plate in defined format with the final concentration of DMSO is not more than 1%. Incubation was carried out in CO2 incubator for 4 days for viral infection. At the end of incubation period an aliquot from each well was taken for p24 estimation. p24 estimation was carried out using Advance biosciences kit as per the procedure detailed by supplier.

pNL4-3 WT = experiment: Antiviral activity against pNL4-3 WT strain in MT4 cells (p24 estimation); format: cell-based, HIV-1; conditions: Human immunodeficiency virus 1, MT4, 96 h, read-out: pNL4-3 WT IC50
Experimental: as §1

SMILES	IC50 (HIV-1 strain 92HT599) [nM]	IC50 (pNL4-3 V7A) [nM]	IC50 (pNL4-3 WT) [nM]
CC1([C@@H]2CC[C@]3(NCC(C)(C)N4CCS(=O)(=O)CC4)CC[C@]4(C)[C@H](CC[C@@H]5[C@@]6(C)CC[C@H](OC(=O)[C@H]7C[C@@H](C(=O)O)C7(C)C)C(C)(C)[C@@H]6CC[C@]54C)[C@@H]23)CC1 [Example 1, (1R,3S)-3-((((1R,3aS,5aR,5bR,7aR,9S,11aR,11bR,13aR,13bR)-3a-((2-(1,1-dioxidothiomorpholino)-2-methylpropyl)amino)-5a,5b,8,8,11a-pentamethyl-1-(1-methylcyclopropyl)icosahydro-1H-cyclopentachrysen-9-yl)oxy)carbonyl)-2,2-dimethyl cyclobutane-1-carboxylic acid]	> 20	> 100	> 50
CC(C)[C@@H](CN[C@]12CC[C@@H](C3(C)CC3)[C@@H]1[C@H]1CC[C@@H]3[C@@]4(C)CC[C@H](OC(=O)[C@H]5C[C@@H](C(=O)O)C5(C)C)C(C)(C)[C@@H]4CC[C@@]3(C)[C@]1(C)CC2)N1CCS(=O)(=O)CC1 [Example 6, (1R,3S)-3-((((1R,3aS,5aR,5bR,7aR,9S,11aR,11bR,13aR,13bR)-3a-(((S)-2-(1,1-dioxidothiomorpholino)-3-methylbutyl)amino)-5a,5b,8,8,11a-pentamethyl-1-(1-methylcyclopropyl)icosahydro-1H-cyclopentachrysen-9-yl)oxy)carbonyl)-2,2-dimethylcyclobutane-1-carboxylic acid]	< 10	1 to 50	10 to 50
CC1([C@@H]2CC[C@]3(NC[C@H](C(=O)O)N4CCS(=O)(=O)CC4)CC[C@]4(C)[C@H](CC[C@@H]5[C@@]6(C)CC[C@H](OC(=O)[C@H]7C[C@@H](C(=O)O)C7(C)C)C(C)(C)[C@@H]6CC[C@]54C)[C@@H]23)CC1 [Example 16, (1R,3S)-3-((((1R,3aS,5aR,5bR,7aR,9S,11aR,11bR,13aR,13bR)-3a-(((R)-2-carboxy-2-(1,1-dioxidothiomorpholino)ethyl)amino)-5a,5b,8,8,11a-pentamethyl-1-(1-methylcyclopropyl)icosahydro-1H-cyclopenta[a]chrysen-9-yl)oxy)carbonyl)-2,2-dimethylcyclobutane-1-carboxylic acid]	10 to 20	> 100	> 50
C=C(C)[C@@H]1CC[C@]2(NC[C@H]([C@@H](C)O)N3CCS(=O)(=O)CC3)CC[C@]3(C)[C@H](CC[C@@H]4[C@@]5(C)CC[C@H](OC(=O)CC(C)(C)C(=O)O)C(C)(C)[C@@H]5CC[C@]43C)[C@@H]12 [Example 20, 4-(((1R,3aS,5aR,5bR,7aR,9S,11aR,11bR,13aR,13bR)-3a-(((2R,3R)-2-(1,1-dioxidothiomorpholino)-3-hydroxybutyl)amino)-5a,5b,8,8,11a-pentamethyl-1-(prop-1-en-2-yl)icosahydro-1H-cyclopentachrysen-9-yl)oxy)-2,2-dimethyl-4-oxobutanoic acid]	< 10	1 to 50	< 10
C[C@H](F)[C@@H](CN[C@]12CC[C@@H](C3(C)CC3)[C@@H]1[C@H]1CC[C@@H]3[C@@]4(C)CC[C@H](OC(=O)[C@H]5C[C@@H](C(=O)O)C5(C)C)C(C)(C)[C@@H]4CC[C@@]3(C)[C@]1(C)CC2)N1CCS(=O)(=O)CC1 [Example 12, (1R,3S)-3-((((1R,3aS,5aR,5bR,7aR,9S,11aR,11bR,13aR,13bR)-3a-(((2R,3 S)-2-(1,1-dioxidothiomorpholino)-3-fluorobutyl)amino)-5a,5b,8,8,11a-pentamethyl-1-(1-methylcyclopropyl)icosahydro-1H-cyclopentachrysen-9-yl)oxy)carbonyl)-2,2-di methylcyclobutane-1-carboxylic acid]	> 20	> 100	10 to 50
CC(C)S(=O)(=O)N1CCN([C@@H](C)CN[C@]23CC[C@@H](C4(C)CC4)[C@@H]2[C@H]2CC[C@@H]4[C@@]5(C)CC[C@H](OC(=O)[C@H]6C[C@@H](C(=O)O)C6(C)C)C(C)(C)[C@@H]5CC[C@@]4(C)[C@]2(C)CC3)CC1 [Example 11, (1R,3S)-3-((((1R,3aS,5aR,5bR,7aR,9S,11aR,11bR,13aR,13bR)-3a-(((S)-2-(4-(isopropylsulfonyl)piperazin-1-yl)propyl)amino)-5a,5b,8,8,11a-pentamethyl-1-(1-methylcyclopropyl)icosahydro-1H-cyclopenta[a]chrysen-9-yl)oxy)carbonyl)-2,2-dimethyl cyclobutane-1-carboxylic acid]	< 10	1 to 50	< 10
COCCOCCOCCO[C@H](C)[C@@H](CN[C@]12CC[C@@H](C3(C)CC3)[C@@H]1[C@H]1CC[C@@H]3[C@@]4(C)CC[C@H](OC(=O)[C@H]5C[C@@H](C(=O)O)C5(C)C)C(C)(C)[C@@H]4CC[C@@]3(C)[C@]1(C)CC2)N1CCS(=O)(=O)CC1 [Example 18, (1R,3S)-3-((((1R,3aS,5aR,5bR,7aR,9S,11aR,11bR,13aR,13bR)-3a-(((12R,13R)-13-(1,1-dioxidothiomorpholino)-12-methyl-2,5,8,11-tetraoxatetradecan-14-yl)amino)-5a,5b,8,8,11a-pentamethyl-1-(1-methylcyclopropyl)icosahydro-1H-cyclopenta[a]chrysen-9-yl)oxy)carbonyl)-2,2-dimethylcyclobutane-1-carboxylic acid]	< 10	1 to 50	< 10
C[C@@H](O)[C@@H](CN[C@]12CC[C@@H](C3(C)CC3)[C@@H]1[C@H]1CC[C@@H]3[C@@]4(C)CC[C@H](OC(=O)[C@H]5C[C@@H](C(=O)O)C5(C)C)C(C)(C)[C@@H]4CC[C@@]3(C)[C@]1(C)CC2)N1CCS(=O)(=O)CC1 [Example 7, (1R,3S)-3-((((1R,3aS,5aR,5bR,7aR,9S,11aR,11bR,13aR,13bR)-3a-(((2R,3R)-2-(1,1-dioxidothiomorpholino)-3-hydroxybutyl)amino)-5a,5b,8,8,11a-pentamethyl-1-(1-methylcyclopropyl)icosahydro-1H-cyclopentachrysen-9-yl)oxy)carbonyl)-2,2-dimethylcyclobutane-1-carboxylic acid]	< 10	1 to 50	< 10
CC1([C@@H]2CC[C@]3(NC[C@@H](CO)N4CCS(=O)(=O)CC4)CC[C@]4(C)[C@H](CC[C@@H]5[C@@]6(C)CC[C@H](OC(=O)[C@H]7C[C@@H](C(=O)O)C7(C)C)C(C)(C)[C@@H]6CC[C@]54C)[C@@H]23)CC1 [Example 8, (1R,3S)-3-((((1R,3aS,5aR,5bR,7aR,9S,11aR,11bR,13aR,13bR)-3a-(((S)-2-(1,1-dioxidothiomorpholino)-3-hydroxypropyl)amino)-5a,5b,8,8,11a-pentamethyl-1-(1-methylcyclopropyl)icosahydro-1H-cyclopenta[a]chrysen-9-yl)oxy)carbonyl)-2,2-dimethylcyclobutane-1-carboxylic acid]	< 10	1 to 50	< 10
C[C@@H](CN[C@]12CC[C@@H](C3(C)CC3)[C@@H]1[C@H]1CC[C@@H]3[C@@]4(C)CC[C@H](OC(=O)[C@H]5C[C@@H](C(=O)O)C5(C)C)C(C)(C)[C@@H]4CC[C@@]3(C)[C@]1(C)CC2)N1CCS(=O)(=O)CC1 [Example 2, (1R,3S)-3-((((1R,3aS,5aR,5bR,7aR,9S,11aR,11bR,13aR,13bR)-3a-(((S)-2-(1,1-dioxidothiomorpholino)propyl)amino)-5a,5b,8,8,11a-pentamethyl-1-(1-methylcyclopropyl)icosahydro-1H-cyclopentachrysen-9-yl)oxy)carbonyl)-2,2-dimethyl cyclobutane-1-carboxylic acid]	< 10	1 to 50	< 10
COCCOCC(=O)O[C@H](C)[C@@H](CN[C@]12CC[C@@H](C3(C)CC3)[C@@H]1[C@H]1CC[C@@H]3[C@@]4(C)CC[C@H](OC(=O)[C@H]5C[C@@H](C(=O)O)C5(C)C)C(C)(C)[C@@H]4CC[C@@]3(C)[C@]1(C)CC2)N1CCS(=O)(=O)CC1 [Example 17, (1R,3S)-3-((((1R,3aS,5aR,5bR,7aR,9S,11aR,11bR,13aR,13bR)-3a-(((2R,3R)-2-(1,1-dioxidothiomorpholino)-3-(2-(2-methoxyethoxy)acetoxy)butyl)amino)-5a,5b,8,8,11a-pentamethyl-1-(1-methylcyclopropyl)icosahydro-1H-cyclopentachrysen-9-yl)oxy)carbonyl)-2,2-dimethylcyclobutane-1-carboxylic acid]	< 10	1 to 50	< 10

Source: patent US12275712B2, “Triterpene derivatives as HIV inhibitors” (HETERO LABS LIMITED, priority 2019, dated 2025)
